Columns and labels:
Type in all cases: in vivo
[1] = test system: ducksalad (Heteranthera limosa); assay: Test B flooded paddy test; details: Heteranthera limosa, 250 g ai/ha, Flood; 0 to 100 scale where 0 is no effect and 100 is complete control; read-out: Ducksalad plant response rating
Outline: (§1)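 Visual ratings (0 none to 100 complete control) are relative to untreated plants, taken 13–15 d after treatment in a greenhouse. Test material went straight into floodwater standing 3 cm above the soil, kept constant, on plants at the 2-leaf stage.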

[2] = test system: barnyardgrass (Echinochloa crus-galli); assay: Test B flooded paddy test; details: Echinochloa crus-galli, 250 g ai/ha, Flood; 0 to 100 scale where 0 is no effect and 100 is complete control; read-out: Barnyardgrass plant response rating
Outline: as §1

[3] = test system: rice (Oryra sativa); assay: Test B flooded paddy test; details: Oryza sativa, 250 g ai/ha, Flood; 0 to 100 scale where 0 is no effect and 100 is complete control; read-out: Rice plant response rating
Outline: as §1

[4] = test system: sedge, umbrella (small-flower umbrella sedge, Cyperus difformis); assay: Test B flooded paddy test; details: Cyperus difformis, 250 g ai/ha, Flood; 0 to 100 scale where 0 is no effect and 100 is complete control; read-out: Sedge, Umbrella plant response rating
Outline: as §1

[5] = test system: pigweed (Amaranthus retroflexus); assay: Test A preemergence; details: Amaranthus retroflexus, pre-emergence, 240 h, 0 to 100 scale where 0 is no effect and 100 is complete control, read-out: Pigweed plant response rating; for pest or weed control at 31 g/ha: 31 g ai/ha, Preemergence; for pest or weed control at 125 g/ha: 125 g ai/ha, preemergence, approx. 10 d
[6] = test system: ryegrass, Italian (Italian ryegrass, Lolium multiflorum); assay: Test A preemergence; details: Lolium multiflorum, pre-emergence, 240 h, 0 to 100 scale where 0 is no effect and 100 is complete control, read-out: Ryegrass, Italian plant response rating; for pest or weed control at 31 g/ha: 31 g ai/ha, Preemergence; for pest or weed control at 125 g/ha: 125 g ai/ha, preemergence, approx. 10 d
Outline: (§2)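 Visual injury, scored on a 0–100 scale relative to untreated controls, was recorded about 10 d after application. Treatments were a preemergence soil spray over planted seeds or a postemergence spray on plants at the one- to two-leaf stage, 2 to 10 cm tall, all in loam soil–sand blend in the greenhouse.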

[7] = test system: ragweed (common ragweed, Ambrosia elatior); assay: Test A preemergence; details: Ambrosia artemisiifolia, pre-emergence, 240 h, 0 to 100 scale where 0 is no effect and 100 is complete control, read-out: Ragweed plant response rating; for pest or weed control at 31 g/ha: 31 g ai/ha, Preemergence; for pest or weed control at 125 g/ha: 125 g ai/ha, preemergence, approx. 10 d
Outline: as §2

[8] = test system: giant foxtail (Setaria faberii); assay: Test A preemergence; details: Setaria faberi, pre-emergence, 240 h, 0 to 100 scale where 0 is no effect and 100 is complete control, read-out: Foxtail, Giant plant response rating; for pest or weed control at 31 g/ha: 31 g ai/ha, Preemergence; for pest or weed control at 125 g/ha: 125 g ai/ha, preemergence, approx. 10 d
Outline: as §2

[9] = test system: barnyardgrass (Echinochloa crus-galli); assay: Test A preemergence; details: Echinochloa crus-galli, pre-emergence, 240 h, 0 to 100 scale where 0 is no effect and 100 is complete control, read-out: Barnyardgrass plant response rating; for pest or weed control at 31 g/ha: 31 g ai/ha, Preemergence; for pest or weed control at 125 g/ha: 125 g ai/ha, preemergence, approx. 10 d
Outline: as §2

[10] = test system: Kochia (Kochia scoparia); assay: Test A preemergence; details: Bassia scoparia, pre-emergence, 240 h, 0 to 100 scale where 0 is no effect and 100 is complete control, read-out: Kochia plant response rating; for pest or weed control at 31 g/ha: 31 g ai/ha, Preemergence; for pest or weed control at 125 g/ha: 125 g ai/ha, preemergence, approx. 10 d
Outline: as §2

[11] = test system: blackgrass (Alopecurus myosuroides); assay: Test A postemergence; details: Alopecurus myosuroides, post-emergence, 240 h; for pest or weed control at 125 g/ha: 125 g ai/ha, postemergence, visual injury vs untreated controls after approx. 10 d, 0 = no effect, 100 = complete control, read-out: Blackgrass plant response rating (0 to 100 scale); for pest or weed control at 31 g/ha: Postemergence, 31 g ai/ha, visual injury after approx. 10 d, 0 to 100 scale, 0 no effect, 100 complete control, read-out: Plant response rating, Blackgrass
Outline: as §2

[12] = test system: pigweed (Amaranthus retroflexus); assay: Test A postemergence; details: Amaranthus retroflexus, post-emergence, 240 h; for pest or weed control at 125 g/ha: 125 g ai/ha, postemergence, visual injury vs untreated controls after approx. 10 d, 0 = no effect, 100 = complete control, read-out: Pigweed plant response rating (0 to 100 scale)
Outline: as §2

[13] = test system: ryegrass, Italian (Italian ryegrass, Lolium multiflorum); assay: Test A postemergence; details: Lolium multiflorum, post-emergence, 240 h; for pest or weed control at 125 g/ha: 125 g ai/ha, postemergence, visual injury vs untreated controls after approx. 10 d, 0 = no effect, 100 = complete control, read-out: Ryegrass, Italian plant response rating (0 to 100 scale)
Outline: as §2

[14] = test system: wheat (Triticum aestivum); assay: Test A postemergence; details: Triticum aestivum, post-emergence, 240 h; for plant injury at 125 g/ha: 125 g ai/ha, postemergence, visual injury vs untreated controls after approx. 10 d, 0 = no effect, 100 = complete control, read-out: Wheat plant response rating (0 to 100 scale)
Outline: as §2

[15] = test system: ragweed (common ragweed, Ambrosia elatior); assay: Test A postemergence; details: Ambrosia artemisiifolia, post-emergence, 240 h; for pest or weed control at 125 g/ha: 125 g ai/ha, postemergence, visual injury vs untreated controls after approx. 10 d, 0 = no effect, 100 = complete control, read-out: Ragweed plant response rating (0 to 100 scale)
Outline: as §2

[16] = test system: Galium (catchweed bedstraw, Galium aparine); assay: Test A postemergence; details: Galium, post-emergence, 240 h; for pest or weed control at 125 g/ha: 125 g ai/ha, postemergence, visual injury vs untreated controls after approx. 10 d, 0 = no effect, 100 = complete control, read-out: Galium plant response rating (0 to 100 scale); for pest or weed control at 31 g/ha: Postemergence, 31 g ai/ha, visual injury after approx. 10 d, 0 to 100 scale, 0 no effect, 100 complete control, read-out: Plant response rating, Galium
Outline: as §2

[17] = test system: giant foxtail (Setaria faberii); assay: Test A postemergence; details: Setaria faberi, post-emergence, 240 h; for pest or weed control at 125 g/ha: 125 g ai/ha, postemergence, visual injury vs untreated controls after approx. 10 d, 0 = no effect, 100 = complete control, read-out: Foxtail, Giant plant response rating (0 to 100 scale); for pest or weed control at 31 g/ha: Postemergence, 31 g ai/ha, visual injury after approx. 10 d, 0 to 100 scale, 0 no effect, 100 complete control, read-out: Plant response rating, Foxtail, Giant
Outline: as §2

[18] = test system: barnyardgrass (Echinochloa crus-galli); assay: Test A postemergence; details: Echinochloa crus-galli, post-emergence, 240 h; for pest or weed control at 125 g/ha: 125 g ai/ha, postemergence, visual injury vs untreated controls after approx. 10 d, 0 = no effect, 100 = complete control, read-out: Barnyardgrass plant response rating (0 to 100 scale); for pest or weed control at 31 g/ha: Postemergence, 31 g ai/ha, visual injury after approx. 10 d, 0 to 100 scale, 0 no effect, 100 complete control, read-out: Plant response rating, Barnyardgrass
Outline: as §2

[19] = test system: Kochia (Kochia scoparia); assay: Test A postemergence; details: Bassia scoparia, post-emergence, 240 h; for pest or weed control at 125 g/ha: 125 g ai/ha, postemergence, visual injury vs untreated controls after approx. 10 d, 0 = no effect, 100 = complete control, read-out: Kochia plant response rating (0 to 100 scale); for pest or weed control at 31 g/ha: Postemergence, 31 g ai/ha, visual injury after approx. 10 d, 0 to 100 scale, 0 no effect, 100 complete control, read-out: Plant response rating, Kochia
Outline: as §2

[20] = test system: corn (Zea mays); assay: Test A postemergence; details: Zea mays, post-emergence, 240 h; for plant injury at 125 g/ha: 125 g ai/ha, postemergence, visual injury vs untreated controls after approx. 10 d, 0 = no effect, 100 = complete control, read-out: Corn plant response rating (0 to 100 scale); for Corn plant response rating (crop injury, 0 = no effect, 100 = complete kill) at 31 g/ha: Postemergence, 31 g ai/ha, visual injury after approx. 10 d, 0 to 100 scale, 100 complete control
Outline: as §2

| Compound | pest or weed control at 250 g/ha [1] | pest or weed control at 250 g/ha [2] | pest or weed control at 250 g/ha [3] | pest or weed control at 250 g/ha [4] | pest or weed control at 31 g/ha [5] | pest or weed control at 125 g/ha [5] | pest or weed control at 31 g/ha [6] | pest or weed control at 125 g/ha [6] | pest or weed control at 31 g/ha [7] | pest or weed control at 125 g/ha [7] | pest or weed control at 31 g/ha [8] | pest or weed control at 125 g/ha [8] | pest or weed control at 31 g/ha [9] | pest or weed control at 125 g/ha [9] | pest or weed control at 31 g/ha [10] | pest or weed control at 125 g/ha [10] | pest or weed control at 125 g/ha [11] | pest or weed control at 31 g/ha [11] | pest or weed control at 125 g/ha [12] | pest or weed control at 125 g/ha [13] | also measured |
| --- | --- | --- | --- | --- | --- | --- | --- | --- | --- | --- | --- | --- | --- | --- | --- | --- | --- | --- | --- | --- | --- |
| CN1C[C@H](c2ccc3ncccc3c2)[C@@H](C(=O)Nc2cccc(F)c2F)C1=O [Compound 1167] | 0% | 0% | 0% | 0% | 0% | 0% | 0% | 0% | 0% | 0% | 0% | 50% | 0% | 0% | 0% | 0% | 0% | 0% | 0% | 0% | pest or weed control at 31 g/ha ([12]; Postemergence, 31 g ai/ha, visual injury after approx. 10 d, 0 to 100 scale, 0 no effect, 100 complete control, read-out: Plant response rating, Pigweed): 0%; pest or weed control at 31 g/ha ([13]; Postemergence, 31 g ai/ha, visual injury after approx. 10 d, 0 to 100 scale, 0 no effect, 100 complete control, read-out: Plant response rating, Ryegrass, Italian): 0%; plant injury at 125 g/ha [14]: 50%; plant injury at 31 g/ha ([14]; Postemergence, 31 g ai/ha, visual injury after approx. 10 d, 0 to 100 scale, 0 no effect, 100 complete control, read-out: Plant response rating, Wheat): 0%; pest or weed control at 125 g/ha [15]: 0%; pest or weed control at 31 g/ha ([15]; Postemergence, 31 g ai/ha, visual injury after approx. 10 d, 0 to 100 scale, 0 no effect, 100 complete control, read-out: Plant response rating, Ragweed): 0%; pest or weed control at 125 g/ha [16]: 20%; pest or weed control at 31 g/ha [16]: 0%; pest or weed control at 125 g/ha [17]: 30%; pest or weed control at 31 g/ha [17]: 0%; pest or weed control at 125 g/ha [18]: 50%; pest or weed control at 31 g/ha [18]: 0%; pest or weed control at 125 g/ha [19]: 0%; pest or weed control at 31 g/ha [19]: 0%; plant injury at 125 g/ha [20]: 0%; Corn plant response rating (crop injury, 0 = no effect, 100 = complete kill) at 31 g/ha [20]: 0% |
| CON1CC[C@H](c2cccc(C(F)(F)F)c2)[C@@H](C(=O)Nc2cccc(Cl)c2F)C1=O [Compound 1171] | 0% | 30% | 0% | 0% | 0% | 40% | 0% | 60% | 0% | 0% | 70% | 90% | 40% | 80% | 0% | 30% | 0% | 0% | 0% | 0% | plant injury at 125 g/ha [14]: 0%; pest or weed control at 125 g/ha [15]: 0%; pest or weed control at 125 g/ha [16]: 0%; pest or weed control at 31 g/ha [16]: 0%; pest or weed control at 125 g/ha [17]: 60%; pest or weed control at 31 g/ha [17]: 30%; pest or weed control at 125 g/ha [18]: 70%; pest or weed control at 31 g/ha [18]: 20%; pest or weed control at 125 g/ha [19]: 0%; pest or weed control at 31 g/ha [19]: 0%; plant injury at 125 g/ha [20]: 0%; Corn plant response rating (crop injury, 0 = no effect, 100 = complete kill) at 31 g/ha [20]: 0% |
